What follows are molecules tested against T1, human MAGL (His-hMAGL) (Homo sapiens, UniProt Q99685) (assay: Measurement of MAGL inhibitory activity by mass spectrometry). Settings: 10 μM test compound; substrate 2-arachidonylglycerol, arachidonic acid by RapidFire-mass spectrometry.
T1 construct: made in house; host or cells: Escherichia coli BL21(DE3)
T1 sequence (Q99685 1-303): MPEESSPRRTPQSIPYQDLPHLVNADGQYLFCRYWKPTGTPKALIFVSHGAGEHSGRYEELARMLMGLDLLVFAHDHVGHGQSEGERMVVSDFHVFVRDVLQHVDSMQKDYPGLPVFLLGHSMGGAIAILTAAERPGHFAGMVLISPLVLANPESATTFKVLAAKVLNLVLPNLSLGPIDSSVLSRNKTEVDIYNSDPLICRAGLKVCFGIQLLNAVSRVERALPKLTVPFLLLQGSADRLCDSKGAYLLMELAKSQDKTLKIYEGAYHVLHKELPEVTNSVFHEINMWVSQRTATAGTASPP
Format: biochemical
In short: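 His-tagged human MAGL was reacted with 150 μM 2-arachidonylglycerol substrate (stock, added by 5 μL) for 10 min at room temperature, then stopped with formic acid. Arachidonic acid product was quantified by RapidFire–triple-quadrupole MS in negative SRM mode, corrected by arachidonic acid-d8, and converted to percent inhibition.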

Row | inhibition at 10 µM [%] | SMILES
1 | 80 | Cc1ccncc1-c1ccc(N2CC(N3CCN(C(=O)c4nccs4)CC3)CC2=O)cc1 (centres unmarked) [Example 177, 1-(4-(4-methylpyridin-3-yl)phenyl)-4-(4-(1,3-thiazol-2-ylcarbonyl)piperazin-1-yl)pyrrolidin-2-one]
2 | 80 | O=C(c1nccs1)N1CCN(C2CC(=O)N(c3ccc4[nH]ccc4c3)C2)CC1 (centres unmarked) [Example 113, 1-(1H-indol-5-yl)-4-(4-(1,3-thiazol-2-ylcarbonyl)piperazin-1-yl)pyrrolidin-2-one]
3 | 102 | Cc1cccc(-c2cccc(N3CC(N4CCN(C(=O)c5nccs5)CC4)CC3=O)c2)c1C (centres unmarked) [Example 143, 1-(2′,3′-dirnethylbiphenyl-3-yl)-4-(4-(1,3-thiazol-2-ylcarbonyl)piperazin-1-yl)pyrrolidin-2-one]
4 | 99 | CC(C)n1nccc1-c1cccc(N2CC(N3CCN(C(=O)c4nccs4)CC3)CC2=O)c1 (centres unmarked) [Example 171, 1-(3-(1-isopropyl-1H-pyrazol-5-yl)phenyl)-4-(4-(1,3-thiazol-2-ylcarbonyl)piperazin-1-yl)pyrrolidin-2-one]

Same assay, conditions: MAGL inhibitory rate, test compound 10 μM, His-hMAGL, substrate 2-arachidonylglycerol, RapidFire-mass spectrometry

Row | inhibition at 10 µM [%] | SMILES
5 | 100 | O=C(c1nccs1)N1CCN(C2CC(=O)N(c3cccc(-c4cccc5cc[nH]c45)c3)C2)CC1 (centres unmarked) [Example 320, 1-(3-(1H-indol-7-yl)phenyl)-4-(4-(1,3-thiazol-2-ylcarbonyl)piperazin-1-yl)pyrrolidin-2-one]
6 | 101 | O=C(c1nccs1)N1CCN(C2CC(=O)N(c3cccc(-c4ccccc4-c4ccccc4)c3)C2)CC1 (centres unmarked) [Example 285, 1-(1,1′:2′,1″-terphenyl-3-yl)-4-(4-(1,3-thiazol-2-ylcarbonyl)piperazin-1-yl)pyrrolidin-2-one]
7 | 97 | NS(=O)(=O)c1ccc(-c2ccc(N3CC(N4CCN(C(=O)c5nccs5)CC4)CC3=O)cc2)cc1 (centres unmarked) [Example 193, 4′-(2-oxo-4-(4-(1,3-thiazol-2-ylcarbonyl)piperazin-1-yl)pyrrolidin-1-yl)biphenyl-4-sulfonamide]
8 | 100 | O=C(c1nccs1)N1CCN(C2CC(=O)N(c3cccc(-c4c[nH]nc4C(F)(F)F)c3)C2)CC1 (centres unmarked) [Example 327, 4-(4-(1,3-thiazol-2-ylcarbonyl)piperazin-1-yl)-1-(3-(3-(trifluoromethyl)-1H-pyrazol-4-yl)phenyl)pyrrolidin-2-one]
9 | 103 | CC(C)Oc1ccccc1-c1cccc(N2CC(N3CCN(C(=O)c4nccs4)CC3)CC2=O)c1 (centres unmarked) [Example 309, 1-(2′-isopropoxybiphenyl-3-yl)-4-(4-(1,3-thiazol-2-ylcarbonyl)piperazin-1-yl)pyrrolidin-2-one]
10 | 101 | O=C(c1nccs1)N1CCN(C2CC(=O)N(c3cccc(-c4ccc(Cl)cc4Cl)c3)C2)CC1 (centres unmarked) [Example 283, 1-(2′,4′-dichlorobiphenyl-3-yl)-4-(4-(1,3-thiazol-2-ylcarbonyl)piperazin-1-yl)pyrrolidin-2-one]
11 | 102 | O=C(c1nccs1)N1CCN(C2CC(=O)N(c3cccc(-c4cccc(F)c4F)c3)C2)CC1 (centres unmarked) [Example 299, 1-(2′,3′-difluorobiphenyl-3-yl)-4-(4-(1,3-thiazol-2-ylcarbonyl)piperazin-1-yl)pyrrolidin-2-one]
12 | 100 | COc1c(-c2cccc(N3CC(N4CCN(C(=O)c5nccs5)CC4)CC3=O)c2)ccc2c1NC(=O)C2 (centres unmarked) [Example 351, 7-Methoxy-6-(3-(2-oxo-4-(4-(1,3-thiazol-2-ylcarbonyl)piperazin-1-yl)pyrrolidin-1-yl)phenyl)-1,3-dihydro-2H-indol-2-one]
13 | 104 | O=C(c1nccs1)N1CCN(C2CC(=O)N(c3cccc(-c4ccccc4Oc4ccccc4)c3)C2)CC1 (centres unmarked) [Example 291, 1-(2′-phenoxybiphenyl-3-yl)-4-(4-(1,3-thiazol-2-ylcarbonyl)piperazin-1-yl)pyrrolidin-2-one]
14 | 98 | O=C(c1nccs1)N1CCN(C2CC(=O)N(c3ccc(-c4ccoc4)cc3)C2)CC1 (centres unmarked) [Example 184, 1-(4-(3-furyl)phenyl)-4-(4-(1,3-thiazol-2-ylcarbonyl)piperazin-1-yl)pyrrolidin-2-one]
15 | 99 | O=C(c1cscn1)N1CCN([C@@H]2CC(=O)N(c3ccc4c(ccn4-c4cccc(F)c4)c3)C2)CC1 [Example 422, (4R)-1-(1-(3-fluorophenyl)-1H-indol-5-yl)-4-(4-(1,3-thiazol-4-ylcarbonyl)piperazin-1-yl)pyrrolidin-2-one]
16 | 100 | O=C(c1nccs1)N1CCN(C2CC(=O)N(c3cccc(-c4csc5ccccc45)c3)C2)CC1 (centres unmarked) [Example 294, 1-(3-(1-benzothiophen-3-yl)phenyl)-4-(4-(1,3-thiazol-2-ylcarbonyl)piperazin-1-yl)pyrrolidin-2-one]
17 | 93 | O=C(c1nccs1)N1CCN(C2CC(=O)N(c3cccc(-c4ccc(OC(F)(F)F)cc4)c3)C2)CC1 (centres unmarked) [Example 292, 4-(4-(1,3-thiazol-2-ylcarbonyl)piperazin-1-yl)-1-(4′-(trifluoromethoxy)biphenyl-3-yl)pyrrolidin-2-one]
18 | 97 | O=C(c1nccs1)N1CCN(C2CC(=O)N(c3ccc4c(c3)CCN4C(=O)c3ccccc3)C2)CC1 (centres unmarked) [Example 396, 1-(1-benzoyl-2,3-dihydro-1H-indol-5-yl)-4-(4-(1,3-thiazol-2-ylcarbonyl)piperazin-1-yl)pyrrolidin-2-one]
19 | 99 | O=C(c1nccs1)N1CCN(C2CC(=O)N(c3cc(F)cc(-c4ccccc4)c3)C2)CC1 (centres unmarked) [Example 242, 1-(5-fluorobiphenyl-3-yl)-4-(4-(1,3-thiazol-2-ylcarbonyl)piperazin-1-yl)pyrrolidin-2-one]
20 | 101 | Cc1ccccc1-n1ccc2cc(N3CC(N4CCN(C(=O)c5nccs5)CC4)CC3=O)ccc21 (centres unmarked) [Example 253, 1-(1-(2-methylphenyl)-1H-indol-5-yl)-4-(4-(1,3-thiazol-2-ylcarbonyl)piperazin-1-yl)pyrrolidin-2-one]
21 | 96 | N#Cc1ccccc1-c1ccc(N2CC(N3CCN(C(=O)c4nccs4)CC3)CC2=O)cc1 (centres unmarked) [Example 209, 4′-(2-oxo-4-(4-(1,3-thiazol-2-ylcarbonyl)piperazin-1-yl)pyrrolidin-1-yl)biphenyl-2-carbonitrile]
22 | 101 | Cc1nn(C)c(C)c1-c1cccc(N2CC(N3CCN(C(=O)c4nccs4)CC3)CC2=O)c1 (centres unmarked) [Example 312]
23 | 101 | Cc1ccccc1-c1cccc(N2CC(N3CCN(c4ncccn4)CC3)CC2=O)c1 (centres unmarked) [Example 268, 1-(2′-methylbiphenyl-3-yl)-4-(4-(pyrimidin-2-yl)piperazin-1-yl)pyrrolidin-2-one]
24 | 103 | CC(C)(C)OC(=O)N1CCc2cc(N3C[C@H](N4CCN(C(=O)c5cscn5)CC4)CC3=O)ccc21 [Example 408, tert-butyl 5-((4R)-2-oxo-4-(4-(1,3-thiazol-4-ylcarbonyl)piperazin-1-yl)pyrrolidin-1-yl)indoline-1-carboxylate]
25 | 100 | O=C(c1cscn1)N1CCN([C@@H]2CC(=O)N(c3ccc4c(ccn4-c4cccc(C(F)(F)F)c4)c3)C2)CC1 [Example 421, (4R)-4-(4-(1,3-thiazol-4-ylcarbonyl)piperazin-1-yl)-1-(1-(3-(trifluoromethyl)phenyl)-1H-indol-5-yl)pyrrolidin-2-one]
26 | 96 | O=C(c1nccs1)N1CCN([C@@H]2CC(=O)N(c3ccc4c(c3)CCN4c3cnc(C(F)(F)F)cn3)C2)CC1 [Example 390, (4R)-4-(4-(1,3-thiazol-2-ylcarbonyl)piperazin-1-yl)-1-(1-(5-(trifluoromethyl)pyrazin-2-yl)-2,3-dihydro-1H-indol-5-yl)pyrrolidin-2-one]
27 | 100 | Cc1ncnc(C)c1-c1cccc(N2CC(N3CCN(C(=O)c4nccs4)CC3)CC2=O)c1 (centres unmarked) [Example 273, 1-(3-(4,6-Dimethylpyrimidin-5-yl)phenyl)-4-(4-(1,3-thiazol-2-ylcarbonyl)piperazin-1-yl)pyrrolidin-2-one]
28 | 100 | CC1C(N2CCN(C(=O)c3nccs3)CC2)CC(=O)N1c1ccc2c(ccn2-c2ncc(C(F)(F)F)cn2)c1 (centres unmarked) [Example 434, 5-methyl-4-(4-(1,3-thiazol-2-ylcarbonyl)piperazin-1-yl)-1-(1-(5-(trifluoromethyl)pyrimidin-2-yl)-1H-indol-5-yl)pyrrolidin-2-one]
29 | 100 | O=C(c1nccs1)N1CCN(C2CC(=O)N(c3sc4cc(F)ccc4c3Cl)C2)CC1 (centres unmarked) [Example 366, 1-(3-Chloro-6-fluoro-1-benzothiophen-2-yl)-4-(4-(1,3-thiazol-2-ylcarbonyl)piperazin-1-yl)pyrrolidin-2-one]
30 | 93 | NC(=O)Cc1cccc(-c2ccc(N3CC(N4CCN(C(=O)c5nccs5)CC4)CC3=O)cc2)c1 (centres unmarked) [Example 214, 2-(4′-(2-oxo-4-(4-(1,3-thiazol-2-ylcarbonyl)piperazin-1-yl)pyrrolidin-1-yl)biphenyl-3-yl)acetamide]
31 | 100 | O=C(c1cscn1)N1CCN(C2CC(=O)N(c3ccc4c(ccn4-c4ccc(F)cc4)c3)C2)CC1 (centres unmarked) [Example 270, 1-(1-(4-fluorophenyl)-1H-indol-5-yl)-4-(4-(1,3-thiazol-4-ylcarbonyl)piperazin-1-yl)pyrrolidin-2-one]
32 | 83 | O=C1CC(N2CCN(c3ncccn3)CC2)CN1c1ccc2c(ccn2-c2ncc(C(F)(F)F)cn2)c1 (centres unmarked) [Example 433, 4-(4-(Pyrimidin-2-yl)piperazin-1-yl)-1-(1-(5-(trifluoromethyl)pyrimidin-2-yl)-1H-indol-5-yl)pyrrolidin-2-one]
